Experimental data from US10183913B2, “Pyrazole compound” (Sumitomo Dainippon Pharma Co., Ltd., priority 2010, dated 2019).
Where a name gives a salt, the structure may show the parent alone. Read-outs that look alike come from different tables or passages of the source.

Legend:
[1] = biological target: human serotonin transporter (h-SERT) (Homo sapiens (Human), UniProt P31645); assay: [3H] citalopram binding assay to evaluate human serotonin reuptake inhibitory action (h-SERT binding assay)
Description: Citalopram Binding Assay to Evaluate Human Serotonin Reuptake Inhibitory Action
(§1) Preparation of the Cells and Membrane Preparations
In the experiment, human serotonin transporter (h-SERT) was expressed in CHO cells (h-SERT/CHO). The cells were incubated with F12 containing 10% FCS, 500 μg/mL Geneticin and 100 U/mL penicillin—100 μg/mL streptmycin (all manufactured by Sigma Aldrich) in an incubator containing 5% CO2; detached and collected using a SERT buffer [50 mmol/L Tris-HCl comprising 120 mmol/L NaCl and 5 mmol/L KCl (pH=7.4)]; homogenized with a homogenizer manufactured by Teflon (trademark); and then centrifuged (50,000×g, 30 min, 4° C.). The precipitate was suspended again in the appropriate amount of SERT buffer (to give a membrane preparation), and stored at −80° C. until used. The amount of protein in the membrane preparation was assayed by Dye Reagent Concentrate (manufactured by BIO-RAD) using bovine serum albumin (manufactured by Sigma Aldrich) as a standard.
1-2. h-SERT Binding Assay
The [^3H] citalopram binding was measured according to the method disclosed in Owens M. J. et al., J. Pharm. […] The solution was reacted at room temperature for 60 minutes, and then quickly suction-filtered under reduced pressure through a glass fiber filter coated with 0.05% aq. polyethyleneimine. The glass fiber filter was washed twice with […] of the SERT buffer, placed in a plastic vial containing 4 mL of liquid scintillator (ACS-II, manufactured by Amersham) or Ecoscint A (manufactured by National Diagnostics), and the remaining radioactivity on the filter paper was assayed with a liquid scintillation counter.

[2] = biological target: human serotonin 2C receptor (h-5-HT2C) (Homo sapiens (Human), UniProt P28335); assay: [3H] mesulergine binding assay to evaluate affinity for human 5-HT2C receptor; conditions: h-5-HT2C/CHO membrane preparation, read-out: Test Ex. 2: 5-HT2C receptor binding inhibition constant Ki
Description: Mesulergine Binding Assay to Evaluate Affinity for Human 5-HT2C Receptor
as §1
In the experiment, human serotonin 2C receptor (h-5-HT2C) was expressed in CHO cells (h-5-HT2C/CHO). The cells were incubated with UltraCHO Lipuid (trademark) (manufactured by BioWhitakker) containing 1% FBS, 400 μg/mL Geneticin, 100 U/mL penicillin—100 μg/mL streptomycin (all manufactured by Sigma Aldrich) and 250 μg/mL Zeosin (manufactured by InvivoGen) in an incubator containing 5% CO2; detached and collected using 50 mmol/L Tris-HCl (pH=7.4); homogenized with a homogenizer manufactured by Teflon (trademark); and then centrifuged (48,000×g, 25 min, 4° C.). The precipitate was suspended again in the appropriate amount of 50 mmol/L Tris-HCl (to give a membrane preparation), and stored at −80° C. until used. The amount of protein in the membrane preparation was assayed by Dye Reagent Concentrate (manufactured by BIO-RAD) using bovine serum albumin (manufactured by Sigma Aldrich) as a standard.
2-2. 5-HT2C Receptor Binding Assay
A solution of 200 μL in total was prepared by mixing 50 μL of [^3H] mesulergine (manufactured by GE Healthcare) diluted with 50 mmol/L Tris-HCl (pH=7.4) (final concentration: about 2 nmol/L), 149 μL of the h-5-HT2C/CHO membrane preparation (protein amount: 20 μg/well), and 1 μL of the test drug dissolved in dimethylsulfoxide. The solution was reacted at 37° C. for 30 minutes, and then quickly suction-filtered under reduced pressure through a glass fiber filter coated with 1% aq. bovine serum albumin. The glass fiber filter was washed twice with 250 μL of 50 mmol/L Tris-HCl (pH=7.4), placed in a plastic vial containing 4 mL of liquid scintillator (ACS-II, manufactured by Amersham) or Ecoscint A (manufactured by National Diagnostics), and the remaining radioactivity on the filter paper was assayed with a liquid scintillation counter. The non-specific binding of [^3H] mesulergine was defined as a binding amount in the presence of 10 μmol/L SB206553 (manufactured by Sigma Aldrich). The IC50 value was calculated according to Hill analysis, and the binding inhibition constant (Ki) was calculated according to the following formula: Binding inhibition constant (Ki)=IC50/(1+S/Kd) wherein S is a concentration of the added [^3H] mesulergine, and Kd is a binding dissociation constant of [^3H] mesulergine which was calculated from a saturated binding assay using the same cell membrane.

[3] = [3H] citalopram binding, read-out: Test Ex. 1: h-SERT binding inhibition constant Ki

human serotonin 2C receptor (h-5-HT2C), sequence (P28335 whole entry, looked up): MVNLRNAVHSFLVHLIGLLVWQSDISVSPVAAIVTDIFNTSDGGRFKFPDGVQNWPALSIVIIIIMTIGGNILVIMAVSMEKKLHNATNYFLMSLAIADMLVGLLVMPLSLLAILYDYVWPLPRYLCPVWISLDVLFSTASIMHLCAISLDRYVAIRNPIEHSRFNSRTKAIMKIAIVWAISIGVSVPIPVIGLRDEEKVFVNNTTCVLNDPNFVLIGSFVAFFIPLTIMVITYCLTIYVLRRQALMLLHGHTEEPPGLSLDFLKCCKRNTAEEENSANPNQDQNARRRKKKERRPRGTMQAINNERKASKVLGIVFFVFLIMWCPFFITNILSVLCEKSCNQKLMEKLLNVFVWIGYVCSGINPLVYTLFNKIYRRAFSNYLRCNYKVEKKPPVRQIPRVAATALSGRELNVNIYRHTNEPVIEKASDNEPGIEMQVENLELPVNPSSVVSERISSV

Row | SMILES | Ki [1, 3] [nM] | Ki [2] [nM] | Ki [1] [nM]
1 | CNCc1cc(OCc2ccccc2)n(Cc2ccccc2)n1 [Example 1, 1-[1-Benzyl-5-(benzyloxy)-1H-pyrazol-3-yl]-N-methylmethanamine hydrochloride] | 4.9 | 26 | 
2 | CNCc1cc(OCc2ccc(F)cc2C)n(CC2CCCCC2)n1 [Example 31, 1-{1-(Cyclohexylmethyl)-5-[(4-fluoro-2-methylbenzyl)oxy]-1H-pyrazol-3-yl}-N-methylmethanamine] | 0.92 | 5.2 | 
3 | CNCc1cc(OCc2ccc(F)cc2)n(CC2CCCC2)n1 [Example 137, 1-{1-(cyclopentylmethyl)-5-[(4-fluorobenzyl)oxy]-1H-pyrazol-3-yl}-N-methylmethanamine] | 6.6 | 7.9 | 
4 | CNCc1cc(OCc2cc(F)ccc2F)n(CC2CCCC2)n1 [Example 147, 1-{1-(cyclopentylmethyl)-5-[(2,5-difluorobenzyl)oxy]-1H-pyrazol-3-yl}-N-methylmethanamine] | 0.71 | 4.8 | 
5 | CNCc1cc(OCc2cc(Cl)ccc2F)n(CC2CCCC2)n1 [Example 148, 1-{5-[(5-chloro-2-fluorobenzyl)oxy]-1-(cyclopentylmethyl)-1H-pyrazol-3-yl}-N-methylmethanamine] | 4.6 | 1.9 | 
6 | CNCc1cc(OCc2ccccc2)n(CCC2CCCC2)n1 [Example 192, 1-[5-(Benzyloxy)-1-(2-cyclopentylethyl)-1H-pyrazol-3-yl]-N-methylmethanamine] | 0.91 | 3.9 | 
7 | CNCc1cc(OCc2cc(F)ccc2F)n(Cc2ccc(F)cc2)n1 [Example 219, 1-{5-[(2,5-difluorobenzyl)oxy]-1-(4-fluorobenzyl)-1H-pyrazol-3-yl}-N-methylmethanamine] | 1.6 | 10 | 
8 | CNCc1cc(OCc2cc(F)ccc2F)n(Cc2ccc(C)cc2)n1 [Example 230, 1-{5-[(2,5-difluorobenzyl)oxy]-1-(4-methylbenzyl)-1H-pyrazol-3-yl}-N-methylmethanamine] | 2.3 | 4.9 | 
9 | CNCc1cc(OCc2cc(F)c(F)cc2F)n(CC2CCCC2)n1 [Example 280, 1-{1-(cyclopentylmethyl)-5-[(2,4,5-trifluorobenzyl)-oxy]-1H-pyrazol-3-yl}-N-methylmethanamine] | 1.9 | 9.7 | 
10 | CNCc1cc(OCc2cc(F)c(F)cc2F)n(CCC(C)(C)C)n1 [Example 284, 1-{1-(3,3-dimethylbutyl)-5-[(2,4,5-trifluorobenzyl)-oxy]-1H-pyrazol-3-yl}-N-methylmethanamine] | 5.7 | 7.9 | 
11 | CNCc1cc(OCc2cc(F)c(F)cc2F)n(Cc2ccc(C)cc2)n1 [Example 286, N-methyl-1-{1-(4-methylbenzyl)-5-[(2,4,5-trifluoro-benzyl)oxy]-1H-pyrazol-3-yl}methanamine] | 5.5 | 6.6 | 
12 | Fc1ccc(F)c(COc2cc(CNC3CC3)nn2CC2CCCCC2)c1 [Example 342, N-({1-(Cyclohexylmethyl)-5-[(2,5-difluorobenzyl)oxy]-1H-pyrazol-3-yl}methyl)cyclopropanamine] | 8.5 | 14 | 
13 | CNCc1nn(CC2CCCCC2)c(OCc2cc(F)ccc2F)c1F.Cl [Example 351, 1-{1-(Cyclohexylmethyl)-5-[(2,5-difluorobenzyl)oxy]-4-fluoro-1H-pyrazol-3-yl}-N-methylmethanamine hydrochloride] |  | 43 | 0.98
14 | CNCc1cc(OCc2ccccc2F)n(CCC(C)C)n1 [Example 381, 1-{5-[(2-fluorobenzyl)oxy]-1-(3-methylbutyl)-1H-pyrazol-3-yl}-N-methylmethanamine] | 3.4 | 10 | 
15 | CNCc1cc(OCc2ccc(F)cc2)n(CC2(C(F)(F)F)CCCC2)n1 [Example 446, 1-(5-[(4-fluorobenzyl)oxy]-1-{[1-(trifluoromethyl)-cyclopentyl]methyl}-1H-pyrazol-3-yl)-N-methylmethanamine] | 7.4 | 19 | 
